In ChEMBL document CHEMBL5303304, “EUbOPEN Chemogenomics Library - IncuCyte” (2023):

How the values were obtained:
Assay type in all cases: toxicity, cell-based
Fibroblast = experiment: Incucyte cell viability with human fibroblast; settings: 10 µM, compound concentration 10 uM
HEK-293T = experiment: Incucyte cell viability with HEK293T; settings: human, 10 µM, compound concentration 10 uM
U2OS = experiment: Incucyte cell viability with U2OS; settings: human, 10 µM, compound concentration 10 uM
Also: unitless GR value; below 1 slowed growth and below 0 cell loss.

| SMILES | Growth Rate (Fibroblast; 0 h, replicate number 2) | Growth Rate (Fibroblast; 6 h, replicate number 1) | Growth Rate (Fibroblast; 6 h, replicate number 2) | Growth Rate (Fibroblast; 12 h, replicate number 1) | Growth Rate (Fibroblast; 12 h, replicate number 2) | Growth Rate (Fibroblast; 18 h, replicate number 1) | Growth Rate (Fibroblast; 18 h, replicate number 2) | Growth Rate (Fibroblast; 24 h, replicate number 1) | Growth Rate (Fibroblast; 24 h, replicate number 2) | Growth Rate (HEK-293T; 6 h, replicate number 1) | Growth Rate (HEK-293T; 6 h, replicate number 2) | Growth Rate (HEK-293T; 12 h, replicate number 1) | Growth Rate (HEK-293T; 12 h, replicate number 2) | Growth Rate (HEK-293T; 18 h, replicate number 1) | Growth Rate (HEK-293T; 18 h, replicate number 2) | Growth Rate (HEK-293T; 24 h, replicate number 1) | Growth Rate (HEK-293T; 24 h, replicate number 2) | Growth Rate (U2OS; 6 h, replicate number 2) | Growth Rate (U2OS; 24 h, replicate number 2) | Growth Rate (U2OS; 0 h, replicate number 2) | further results |
| --- | --- | --- | --- | --- | --- | --- | --- | --- | --- | --- | --- | --- | --- | --- | --- | --- | --- | --- | --- | --- | --- |
| CCS(=O)(=O)c1ccc(OC)c(Nc2ncc(-c3cccc(F)c3)o2)c1 [GW621970X] | -0.51 | -0.04 | 0.01 | 0.4 | 0.24 | 0.72 | 0.7 | 0.73 | 0.99 | -0.48 | -0.44 | -0.12 | 0.2 | 0.22 | 0.63 | 0.43 | 0.8 | 0.74 | 0.77 | – | Growth Rate (U2OS; 12 h, replicate number 2): 0.84; Growth Rate (U2OS; 18 h, replicate number 1): 0.79; Growth Rate (U2OS; 18 h, replicate number 2): 0.86; Growth Rate (U2OS; 24 h, replicate number 1): 0.94 |
| COc1ccc(COc2ccc(Cc3cnc(N)nc3N)cc2OC)cc1 [GW632580X] | -0.61 | 0.69 | 0.45 | 0.73 | 0.22 | 0.86 | 0.48 | 0.78 | 0.57 | 0.7 | – | 0.83 | 0.92 | 0.93 | 0.87 | 0.91 | 0.92 | – | – | 0.63 | Growth Rate (U2OS; 6 h, replicate number 1): 0.52; Growth Rate (U2OS; 12 h, replicate number 1): 0.7; Growth Rate (U2OS; 18 h, replicate number 1): 0.63; Growth Rate (U2OS; 24 h, replicate number 1): 0.89 |
| O=C(CCCN1CCC(O)(c2ccc(Cl)cc2)CC1)c1ccc(F)cc1 [HALOPERIDOL] | – | 0.04 | -0.32 | 0.4 | -0.02 | 0.49 | 0.22 | 0.65 | 0.4 | – | 0.42 | – | 0.63 | – | 0.65 | – | 0.75 | 0.98 | – | 0.79 | Growth Rate (HEK-293T; 0 h, replicate number 2): -0.68; Growth Rate (U2OS; 0 h, replicate number 1): 0.26; Growth Rate (U2OS; 12 h, replicate number 1): -0.1; Growth Rate (U2OS; 18 h, replicate number 2): 1 |
| C=CC(=O)N1CCC[C@@H](n2nc(-c3ccc(Oc4ccccc4)cc3)c3c(N)ncnc32)C1 [IBRUTINIB] | – | 0.04 | 0.23 | – | 0.79 | 0.66 | – | – | – | -0.5 | -0.48 | -0.04 | -0.25 | 0.36 | 0.27 | 0.51 | 0.25 | 0.61 | 0.55 | 0.8 | Growth Rate (HEK-293T; 0 h, replicate number 2): -1; Growth Rate (U2OS; 0 h, replicate number 1): -0.06; Growth Rate (U2OS; 6 h, replicate number 1): -0.04; Growth Rate (U2OS; 12 h, replicate number 1): 0.53; Growth Rate (U2OS; 12 h, replicate number 2): 0.61; Growth Rate (U2OS; 18 h, replicate number 1): 0.56; Growth Rate (U2OS; 24 h, replicate number 1): 0.63 |
| O=C1NC(c2cccc([N+](=O)[O-])c2)=CCN1c1ccccc1O [ICILLIN] | -0.28 | -0.8 | 0.04 | 0.02 | 0.48 | – | 0.89 | – | 0.91 | – | – | – | – | – | – | – | – | 0.82 | 0.93 | 1 | Growth Rate (Fibroblast; 0 h, replicate number 1): 0.99; Growth Rate (HEK-293T; 0 h, replicate number 2): 0.85; Growth Rate (U2OS; 12 h, replicate number 2): 0.76; Growth Rate (U2OS; 18 h, replicate number 2): 0.96 |
| CC[C@H](Nc1ncnc2[nH]cnc12)c1nc2cccc(F)c2c(=O)n1-c1ccccc1 [IDELALISIB] | -0.51 | – | 0.25 | – | 0.49 | – | 0.95 | 0.92 | – | 0.29 | -0.34 | 0.62 | 0.12 | 0.31 | 0.29 | 0.38 | 0.36 | 0.92 | 0.94 | – | Growth Rate (Fibroblast; 0 h, replicate number 1): 0.15 |
| O=C(Nc1cc(C(F)(F)F)cc(C(F)(F)F)c1)c1cc(Cl)ccc1O [IMD-0354] | -0.02 | – | -1 | – | -0.61 | -0.63 | -0.45 | 0.42 | -0.33 | 0.18 | -0.86 | 0.81 | -0.2 | 0.76 | 0.17 | – | 0.36 | -0.23 | 0.26 | -1 | Growth Rate (Fibroblast; 0 h, replicate number 1): -0.62; Growth Rate (U2OS; 0 h, replicate number 1): -0.14; Growth Rate (U2OS; 6 h, replicate number 1): 0.76; Growth Rate (U2OS; 12 h, replicate number 1): 0.7; Growth Rate (U2OS; 12 h, replicate number 2): 0.03; Growth Rate (U2OS; 18 h, replicate number 1): 0.69; Growth Rate (U2OS; 18 h, replicate number 2): 0.18; Growth Rate (U2OS; 24 h, replicate number 1): 0.71 |
